Assays:
Assay type in all cases: in vivo, mouse
[1] = tested on: male KK-Ay mice (KK-Ay/Ta Jcl); test: Seven day baseline glucose (7DBG) study in fed KK-Ay mice (Example 123, FIG. 7); details: oral once daily 7 days
Method: To determine the effect of a test compound on blood glucose levels in fed diabetic mice, seven day baseline glucose (7DBG) studies were conducted. Six to eight week old, male db/db mice (C57BLKS/J-m+/+Lepr^db/Iar), homozygous for a mutation in the gene encoding the leptin receptor, were purchased from the Institute for Animal Reproduction (Kasumigaura, Japan). Six to eight week old male KK-A^y mice (KK-A^y/Ta Jcl), a polygenic diabetes model, were purchased from Cler Japan (Tokyo, Japan). Animals were housed four to a cage in micro-isolators on a 12 hr/12 hr light/dark cycle, acclimated for at least one week prior to use and fed normal laboratory chow ad libitum. Studies were conducted with animals between nine and fourteen weeks of age. […]
To perform a 7DBG study, the starting glucose levels of db/db or KK-Ay mice in the fed state were determined on day 0, 24 hrs prior to the first drug dose on day 1. Animals were retro-orbitally bled and serum glucose levels measured by the mutarotase-glucose oxidase enzymatic method using a Glucose CII-Test Wako kit (Wako Pure Chemicals Industries, Ltd., Osaka, Japan). […] Serum glucose levels were determined 3 hrs after dosing the first compound on days 3 and 7.
The serum glucose levels on days 3 or 7 as a percent of the serum glucose levels on day 0 for individual animals in each group (8 mice/group), were calculated using Formula 3. […]

[2] = tested on: male db/db mice (BKS.Cg-m+/+Lepr db/J); test: Oral glucose tolerance test (OGTT) in db/db mice (Example 122, FIG. 4); details: orally dosed
Method: To determine the effect of a test compound on blood glucose levels in diabetic mice, intraperitoneal and/or oral glucose tolerance tests (IPGTT and OGTT, respectively) were conducted. Six to eight week old, male db/db mice (BKS.Cg-m+/+Lepr^db/J; stock number 000642), homozygous for a mutation in the gene encoding the leptin receptor, were purchased from The Jackson Laboratory (Bar Harbor, Me. USA). Animals were singly housed in conventional caging on a 12 hr/12 hr light/dark cycle, acclimated for at least five days prior to use and fed normal laboratory chow ad libitum between experiments. Studies were conducted with animals between seven and fourteen weeks of age. […]
To perform an IPGTT or OGTT, db/db mice were fasted overnight beginning on day 0 at −17.5 to −18.5 hrs relative to the glucose dose on day 1 (all time points below are stated relative to the time of an intraperitoneal or oral glucose dose on day 1). At −4.5 hrs, animals were weighed, blood was collected by tail vein lancing and fasted blood glucose levels determined using a hand-held glucometer (MediSense Precision Xtra or LifeScan OneTouch Ultra). […] Blood glucose levels were determined as above at −45 min and +45 min, and also +90 min and/or +150 min (see FIG. 3 and the Table in this section). Alternatively, blood glucose levels were determined at −30 min, +30 min, +60 min and +120 min (see FIGS. 4 and 5). […]

Lepr db mice = test: Oral glucose tolerance test in Lepr db mice (Example 120)
Method: Compound 39 (25, 50 and 100 mg/kg) and vehicle (0.5% Methylcellulose) were administered orally at one hour before glucose loading (2 g/kg, PO) to Lepr db mice fasted for about 4 hours. Blood samples were collected sequentially from the retro-orbital sinus at pre-treatment one day before and about 1 and about 2 hours after glucose loading. Serum glucose values were obtained at about 1 and about 2 hours after glucose loading, percentage reductions were expressed as percentage of corresponding vehicle control values and unpaired Student's t test was then applied for comparison between test substance and vehicle group. Differences are considered significant at P<0.05 level.

## CCOC(=O)C1=C(COCCN)NC2=C(C(=O)CC(C)(C)C2)C1c1cccnc1 (stereo not drawn) [Compound 39, 2-(2-Amino-ethoxymethyl)-7,7-dimethyl-5-oxo-4-pyridin-3-yl-1,4,5,6,7,8-hexahydro-quinoline-3-carboxylic acid ethyl ester]
[1]
  glucose lowering activities of rosiglitazone and metformin in combination with Compound 39 (FIG. 7): enhanced
[1]; Compound 39 alone
  serum glucose (FIG. 7): decreased serum glucose
[2]
  glucose intolerance relative to vehicle-treated animals (FIG. 4): decreased
Lepr db mice; 0 hr (pre-treatment one day before), 25 mg/kg group
  Serum Glucose: 375.9 ± 16.3 mg/dL
Lepr db mice; 0 hr (pre-treatment one day before), 50 mg/kg group
  Serum Glucose: 371.1 ± 15.2 mg/dL
Lepr db mice; 0 hr (pre-treatment one day before), 100 mg/kg group
  Serum Glucose: 340.7 ± 14.2 mg/dL
Lepr db mice; 1 hr after glucose loading (2 g/kg PO), 25 mg/kg orally
  Serum Glucose: 379.3 ± 18.5 mg/dL
Lepr db mice; 1 hr after glucose loading (2 g/kg PO), 50 mg/kg orally
  Serum Glucose: 415.6 ± 11.0 mg/dL
Lepr db mice; 1 hr after glucose loading (2 g/kg PO), 100 mg/kg orally
  Serum Glucose: 366.2 ± 17.3 mg/dL
Lepr db mice; 1 hr after glucose loading, 25 mg/kg orally
  serum glucose % Reduction relative to vehicle: (19.3) %
Lepr db mice; 1 hr after glucose loading, 50 mg/kg orally
  serum glucose % Reduction relative to vehicle: (11.6) %
Lepr db mice; 1 hr after glucose loading, 100 mg/kg orally
  serum glucose % Reduction relative to vehicle: (22.1) %
Lepr db mice; 2 hr after glucose loading (2 g/kg PO), 25 mg/kg orally
  Serum Glucose: 331.1 ± 14.5 mg/dL
Lepr db mice; 2 hr after glucose loading (2 g/kg PO), 50 mg/kg orally
  Serum Glucose: 346 ± 16.8 mg/dL
Lepr db mice; 2 hr after glucose loading (2 g/kg PO), 100 mg/kg orally
  Serum Glucose: 301.3 ± 28.4 mg/dL
Lepr db mice; 2 hr after glucose loading, 25 mg/kg orally
  serum glucose % Reduction relative to vehicle: (11.8) %
Lepr db mice; 2 hr after glucose loading, 50 mg/kg orally
  serum glucose % Reduction relative to vehicle: (7.8) %
Lepr db mice; 2 hr after glucose loading, 100 mg/kg orally
  serum glucose % Reduction relative to vehicle: (19.7) %
